From patent US9510521B2, “Use of abscisic acid to alter sensory characteristics of red grapes and wine” (Valent BioSciences Corporation, priority 2007, dated 2016)

What was measured:
Shiraz grapes [1] = test: Foliar S-ABA on Shiraz grapes about 3 weeks before veraison: grape quality at harvest and wine quality; type: in vivo; settings: 200 ppm foliar spray approx. 3 weeks prior to veraison
Procedure: (§1) S-ABA (200 ppm) was applied by foliar spray using a standard vineyard airblast sprayer at 2000 L/ha to commercially grown Shiraz grapes approximately 3 weeks prior to initiation of veraison. The spray mix contained the surfactant/wetter Agral at 10 ml/100 L. Results reported are means of 4 replicates (grapes) and 3 replicates (wines) per treatment. Winemaking followed a standard small lot fermentation protocol with each replicate wine being made from 50 kg of harvested grapes.
However, at-harvest grape anthocyanin and wine color density and total phenolics are increased by S-ABA.

Shiraz grapes [2] = test: Sensory panel of 6 assessors, Shiraz wine, drip irrigation S-ABA; type: in vivo, grape; settings: 0.4 grams per vine via drip irrigation
Procedure: S-ABA (0.4 grams per vine) was applied to commercially grown Shiraz grapes through the drip irrigation system at approximately 3 weeks prior to initiation of veraison. No surfactant was added to the irrigation water. Results reported are means of 3 replicates. Winemaking followed a standard small lot fermentation protocol with each replicate wine being made from 50 kg of harvested grapes.
Table 5 illustrates that S-ABA increased anthocyanin and phenolics of grape/juice at crush and wine color density and total phenolics and reduced wine hue. S-ABA had no effect on sugar, pH, or total acidity of grapes/juice at crush or on alcohol or pH of wine.

Shiraz grapes [3] = test: Sensory panel of 6 assessors, Shiraz wine, foliar S-ABA at veraison; type: in vivo, grape; settings: 200 ppm foliar spray at veraison
Procedure: S-ABA (200 ppm) was applied by foliar spray at veraison to commercially grown Shiraz grapes through standard agricultural spray equipment on 12 Jan. 2007. Kendeen 20 (Tween 20) was added to the spray mix at 50 ml/100 L. Reported results are means of 3 replicates. Winemaking followed a standard small lot fermentation protocol with each replicate wine being made from 50 kg of harvested grapes.

Shiraz grapes [4] = test: Sensory profile of Shiraz wine from S-ABA-treated fruit, 10 experienced sensory assessors; type: in vivo, grape; settings: 200 ppm foliar spray, 10 assessors
Procedure: as §1
Using a nine-point hedonic scale rating (dislike=1 to like=9) the sensors judged wine from the S-ABA treatment higher than the untreated (6.2 vs. 5.0, respectively) and thus a technically better wine.

[5] = test system: Cabernet Sauvignon grapes; test: Sensory panel rating of Cabernet Sauvignon wine from S-ABA treatment; type: in vivo, grape; settings: 1-5 scale, 1 = low/short, 5 = high/long
Procedure: S-ABA (200 ppm) was applied by foliar spray to Cabernet Sauvignon grapes when sugar levels were approximately 11 Be using a standard vineyard airblast sprayer at approximately 2000 L/ha. The spray mix contained the surfactant/wetter Agral at 10 ml/100 L. Wine was prepared from the treated and untreated grapes.

For “(S)-5-(1-hydroxy-2,6,6,-trimethyl-4-oxo-2-cyclohexen-1-yl)-3-methyl-(2Z,4E)-pentadienoic acid [S-ABA]”, the Wine hue (Shiraz grapes [1]) was 0.56, the “Sensory panel of 6 assessors” value (Shiraz grapes [2]) was “more intense fruit and was less acidic” and the “Sensory panel of 6 assessors” value (Shiraz grapes [3]) was “more intense fruit, spice and herbaceous flavors and more tannin”. For the same substance, the Aroma (Shiraz grapes [4]; Shiraz wine sensory profile) was “more intense berry aroma”, the Color (Shiraz grapes [4]; Shiraz wine sensory profile) was “Increased intensity” and the Taste (Shiraz grapes [4]; Shiraz wine sensory profile) was “more fruity, more acidic taste”. For the same substance, the “Hedonic scale (1-dislike, 9 like)” value (Shiraz grapes [4]; Shiraz wine, nine-point hedonic scale) was 6.2, the Body/fullness [5] was 1.7 and the Flavor intensity [5] was 2.7.
